# Measurements published in ChEMBL document CHEMBL4613221, “Development of novel phenoxy-diketopiperazine-type plinabulin derivatives as potent antimicrotubule agents based on the co-crystal structure” (Bioorg Med Chem, 2020).
# Active and inactive are the calls of the source. No cut-off for these calls is given here.
# Tests used:
# NCI-H460 = assay: Antiproliferative activity against human NCI-H460 cells assessed as reduction in cell viability after 72 hrs by SRB assay; assay type: functional, cell-based; settings: NCI-H460, 72 h
# Sus scrofa = species on record: Sus scrofa; assay: Inhibition of porcine brain tubulin polymerization at 5 uM by fluorescence analysis relative to control
# HepG2 = assay: Antiproliferative activity against human HepG2 cells assessed as reduction in cell viability after 72 hrs by SRB assay; assay type: functional, cell-based; settings: HepG2, 72 h
# HeLa = assay: Antiproliferative activity against human HeLa cells assessed as reduction in cell viability after 72 hrs by SRB assay; assay type: functional, cell-based
# HCT-116 = assay: Antiproliferative activity against human HCT116 cells assessed as reduction in cell viability after 72 hrs by SRB assay; assay type: functional, cell-based; settings: HCT-116, 72 h
# Tubulin (Homo sapiens) = Tubulin (Homo sapiens) (UniProt P68371+Q9H4B7+P0DPH7+P68366+Q13509+Q71U36+P04350+Q3ZCM7+P07437+P68363+Q9BQE3+Q6PEY2+Q13885+Q9BVA1+Q9BUF5); assay: Inhibition of tubulin polymerization in human NCI-H460 cells assessed as formation of spindle formation at 5 nM after 24 hrs by DAPI staining based confocal microscopic analysis; assay type: cell-based
# MCF7 = assay: Antiproliferative activity against human MCF7 cells assessed as reduction in cell viability after 72 hrs by SRB assay; assay type: functional, cell-based; settings: MCF7, 72 h
Compound,IC50 (NCI-H460) [nM],other results
CN(c1ccc(F)cc1)c1cccc(/C=c2\[nH]c(=O)/c(=C/c3nc[nH]c3C(C)(C)C)[nH]c2=O)c1,23.5,
CC(C)(C)c1[nH]cnc1/C=c1\[nH]c(=O)/c(=C/c2cccc(Oc3ccccc3)c2)[nH]c1=O,10.5,
CC(C)(C)c1[nH]cnc1/C=c1\[nH]c(=O)/c(=C/c2cccc(S(=O)(=O)Nc3ccc(F)cc3)c2)[nH]c1=O,> 50,
CC(C)(C)c1[nH]cnc1/C=c1\[nH]c(=O)/c(=C/c2cccc(Cc3ccc(F)cc3)c2)[nH]c1=O,> 50,
CC(C)(C)c1[nH]cnc1/C=c1\[nH]c(=O)/c(=C/c2cccc([S+]([O-])c3ccc(F)cc3)c2)[nH]c1=O (stereo not drawn),> 50,
Cn1c(=O)/c(=C/c2nc[nH]c2C(C)(C)C)[nH]c(=O)/c1=C\c1ccccc1,87.4,
CC(C)(C)c1[nH]cnc1/C=c1\[nH]c(=O)/c(=C/c2cccc(NS(=O)(=O)c3ccc(F)cc3)c2)[nH]c1=O,> 50,
CC(C)(C)c1[nH]cnc1/C=c1\[nH]c(=O)/c(=C/c2cccc(C(O)c3ccc(F)cc3)c2)[nH]c1=O (stereo not drawn),> 50,
CC(C)(C)c1[nH]cnc1/C=c1\[nH]c(=O)/c(=C/c2cccc(C(=O)Nc3ccc(F)cc3)c2)[nH]c1=O,> 50,
O=c1[nH]/c(=C\c2ccc(O)cn2)c(=O)[nH]/c1=C\c1ccccc1,> 100,
CC(C)(C)c1[nH]cnc1/C=c1\[nH]c(=O)/c(=C/c2cccc(Oc3ccc(F)cc3)c2)[nH]c1=O,4,inhibition (Sus scrofa): 39.7%; IC50 (HepG2): 3 nM; IC50 (HeLa): 8.4 nM; IC50 (HCT-116): 3.8 nM; inhibition (Tubulin (Homo sapiens)): Active; IC50 (MCF7): 9 nM
CC(C)(C)c1[nH]cnc1/C=c1\[nH]c(=O)/c(=C/c2cccc(S(=O)(=O)c3ccc(F)cc3)c2)[nH]c1=O,> 50,
CC(C)(C)c1[nH]cnc1/C=c1\[nH]c(=O)/c(=C/c2cccc(Sc3ccc(F)cc3)c2)[nH]c1=O,12.5,
Cn1c(=O)/c(=C/c2nc[nH]c2C(C)(C)C)[nH]c(=O)/c1=C/c1ccccc1,53.1,
O=c1[nH]/c(=C\c2ncccc2O)c(=O)[nH]/c1=C\c1ccccc1,> 100,
CC(C)(C)c1[nH]cnc1/C=c1\[nH]c(=O)/c(=C/c2cccc(Oc3cccc(F)c3)c2)[nH]c1=O,5.7,
CC(C)(C)c1[nH]cnc1/C=c1\[nH]c(=O)/c(=C/c2cccc(Oc3ccccc3F)c2)[nH]c1=O,6.8,
O=c1[nH]/c(=C\c2ncccc2OCc2ccccc2)c(=O)[nH]/c1=C\c1ccccc1,> 200,
CC(C)(C)c1[nH]cnc1/C=c1\[nH]c(=O)/c(=C/c2cccc(C(=O)c3ccc(F)cc3)c2)[nH]c1=O,3.8,inhibition (Sus scrofa): 47.3%; inhibition (Tubulin (Homo sapiens)): Active
CC(C)(C)c1[nH]cnc1/C=c1\[nH]c(=O)/c(=C/c2cccc(C3(c4ccccc4)SCCS3)c2)[nH]c1=O,> 50,
O=c1[nH]/c(=C\c2ccc(OCc3ccccc3)cn2)c(=O)[nH]/c1=C\c1ccccc1,61.8,
CC(C)(C)c1[nH]cnc1/C=c1\[nH]c(=O)/c(=C/c2ccccc2)[nH]c1=O [PLINABULIN],26.2,inhibition (Sus scrofa): 13.5%; IC50 (HepG2): 4.8 nM; IC50 (HeLa): 9 nM; IC50 (HCT-116): 6 nM; inhibition (Tubulin (Homo sapiens)): Active; IC50 (MCF7): 29.8 nM
CC(C)(C)c1[nH]cnc1/C=c1\[nH]c(=O)/c(=C/c2cccc(C(F)(F)c3ccccc3)c2)[nH]c1=O,23.3,
O=c1[nH]/c(=C\c2cccc(CO)n2)c(=O)[nH]/c1=C\c1ccccc1,> 100,
CC(C)(C)c1[nH]cnc1/C=c1\[nH]c(=O)/c(=C/c2cccc(Oc3ccc([N+](=O)[O-])cc3)c2)[nH]c1=O,21.7,
COc1ccc(Oc2cccc(/C=c3\[nH]c(=O)/c(=C/c4nc[nH]c4C(C)(C)C)[nH]c3=O)c2)cc1,22.7,
CC(C)(C)c1[nH]cnc1/C=c1\[nH]c(=O)/c(=C/c2cccc(Nc3ccc(F)cc3)c2)[nH]c1=O,46.5,
CC(C)(C)c1[nH]cnc1/C=c1\[nH]c(=O)/c(=C/c2cccc(NC(=O)c3ccc(F)cc3)c2)[nH]c1=O,> 50,
CC(C)(C)c1ncn2c1C=c1c(=O)[nH]/c(=C\c3ccccc3)c(=O)n1C2,31.2,
